For one test, the target named is T1, Rat M4 (Rattus norvegicus, UniProt P08485).
T1 construct: expressed in transfected cells; host or cells: CHO-K1 (ATCC), stably expressing M4 and Gqi5
T1 sequence (P08485 1-478): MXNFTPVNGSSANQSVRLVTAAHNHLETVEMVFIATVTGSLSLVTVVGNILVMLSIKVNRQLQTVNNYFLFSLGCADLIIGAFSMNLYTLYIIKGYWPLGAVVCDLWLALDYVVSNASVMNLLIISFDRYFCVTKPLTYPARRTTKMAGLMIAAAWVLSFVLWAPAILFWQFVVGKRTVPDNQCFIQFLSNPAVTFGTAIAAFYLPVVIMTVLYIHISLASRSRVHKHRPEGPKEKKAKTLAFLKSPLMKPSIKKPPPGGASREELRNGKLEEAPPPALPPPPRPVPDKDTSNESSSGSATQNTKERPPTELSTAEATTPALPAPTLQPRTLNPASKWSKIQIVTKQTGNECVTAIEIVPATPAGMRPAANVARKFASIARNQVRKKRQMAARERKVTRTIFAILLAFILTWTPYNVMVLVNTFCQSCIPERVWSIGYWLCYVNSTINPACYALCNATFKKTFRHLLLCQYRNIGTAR
The experiment in a line: mAChR M4 cell-based functional calcium flux assay (rat M4/Gqi5/CHO cells). The settings on record: for Emin (rat M4): % ACh maximum at 30 μM; for IC50: decrease of the response to an EC80 concentration of acetylcholine. In outline: (§1)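 CHO-K1 cells stably co-expressing M4 of the given species with chimeric Gqi5 were loaded with Fluo-4 AM and read for calcium flux. Compounds (10-point, 1:3 dilutions) were added first, followed by an acetylcholine EC20 at 143 s and an EC80 at 268 s. IC50 reflects the concentration-dependent fall in the EC80 response, fitted with a four-parameter logistic.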
A general note: Calcium flux is commonly read through the fluorescence of an indicator in the cells.

Another test deals with T2, Human M4 (Homo sapiens, UniProt P08173).
T2 construct: expressed in transfected cells; host or cells: CHO-K1 (ATCC), stably expressing M4 and Gqi5
T2 sequence (P08173 1-479): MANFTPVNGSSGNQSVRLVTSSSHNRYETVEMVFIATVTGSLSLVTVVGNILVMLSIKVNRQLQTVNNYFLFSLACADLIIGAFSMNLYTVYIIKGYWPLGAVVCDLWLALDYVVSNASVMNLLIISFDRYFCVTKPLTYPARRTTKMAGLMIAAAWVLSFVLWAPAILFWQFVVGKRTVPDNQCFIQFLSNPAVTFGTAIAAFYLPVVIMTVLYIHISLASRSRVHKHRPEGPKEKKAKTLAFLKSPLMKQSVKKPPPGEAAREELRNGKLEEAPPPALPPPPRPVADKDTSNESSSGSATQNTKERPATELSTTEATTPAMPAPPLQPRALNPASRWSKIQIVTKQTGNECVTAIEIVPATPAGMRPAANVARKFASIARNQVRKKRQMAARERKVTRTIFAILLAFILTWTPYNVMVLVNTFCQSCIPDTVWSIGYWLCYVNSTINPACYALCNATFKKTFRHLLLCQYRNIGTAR
The experiment in a line: mAChR M4 cell-based functional calcium flux assay (human M4/Gqi5/CHO cells). The settings on record: for Emin (human M4): % ACh maximum at 30 μM; for IC50: decrease of the response to an EC80 concentration of acetylcholine. In outline:
as §1

Usually IC50 stands for the concentration needed to halve the response being measured. On to `Cc1nn(C)cc1-c1ccc(NCC2CC23CCN(CCC(C)(C)C)CC3)nn1` (stereo not shown) [Compound 50, N-[[6-(3,3-dimethylbutyl)-6-azaspiro[2.5]octan-2-yl]methyl]-6-(1,3-dimethylpyrazol-4-yl)pyridazin-3-amine], for which, on Rat M4, the “Emin (rat M4)” value is on record as 3.70% and the IC50 came to 15.8 nM. Further, at Human M4, the “Emin (human M4)” value amounted to 2.71% and the IC50 was found to be 2.4 nM.

As for `Cc1nn(C)cc1-c1ccc(NCC2CC23CCN(C[C@H]2C[C@@H]4CC[C@H]2O4)CC3)nn1` (stereo partly drawn) [Compound 3, N-((6-(((1R,2R,4S)-7-Oxabicyclo[2.2.1]heptan-2-yl)methyl)-6-azaspiro[2.5]octan-1-yl)methyl)-6-(1,3-dimethyl-1H-pyrazol-4-yl)pyridazin-3-amine], on Rat M4, the “Emin (rat M4)” value stood at 7.69% and the IC50 came out at 742 nM. Also, on Human M4, the “Emin (human M4)” value came to 3.52% and the IC50 was 43.6 nM.

Turning to `CC(C)(C)CCN1CCC2(CC1)CC2CNc1ccc(-c2cc(F)ccc2C#N)nn1` (stereo not shown) [Compound 43, 2-[6-[[[6-(3,3-dimethylbutyl)-6-azaspiro[2.5]octan-2-yl]methyl]amino]pyridazin-3-yl]-4-fluoro-benzonitrile], at Rat M4, the “Emin (rat M4)” value was 3.33% and the IC50 turned out to be 199 nM. For the same compound, on Human M4, the “Emin (human M4)” value was determined as 2.34% and the IC50 was found to be 23 nM.

For `Cc1nn(C)cc1-c1nnc(NCC2CC23CCN(Cc2ccccc2)CC3)c2ccccc12` (stereo not shown) [Compound 88, N-[(6-benzyl-6-azaspiro[2.5]octan-2-yl)methyl]-4-(1,3-dimethylpyrazol-4-yl)phthalazin-1-amine], on Rat M4, the “Emin (rat M4)” value came to 6% and the IC50 came to 1250 nM. Besides, at Human M4, the “Emin (human M4)” value was determined as 5% and the IC50 came to 265 nM.

Take `CC(C)(C)CCN1CCC2(CC1)CC2CNc1ccc(Cl)nn1` (stereo not shown) [Compound 20, 6-chloro-N-[[6-(3,3-dimethylbutyl)-6-azaspiro[2.5]octan-2-yl]methyl]pyridazin-3-amine]: at Rat M4, the “Emin (rat M4)” value turned out to be 5.14% and the IC50 was 1090 nM. In addition, on Human M4, the “Emin (human M4)” value was determined as 3.47% and the IC50 was determined as 270 nM.

Regarding `Cc1ccc(F)cc1-c1ccc(NCC2CC23CCN(CCC(C)(C)C)CC3)nn1` (stereo not shown) [Compound 29, N-[[6-(3,3-dimethylbutyl)-6-azaspiro[2.5]octan-2-yl]methyl]-6-(5-fluoro-2-methyl-phenyl)pyridazin-3-amine], at Rat M4, the “Emin (rat M4)” value was 3.14% and the IC50 amounted to 39.8 nM. Moreover, on Human M4, the “Emin (human M4)” value was determined as 2.78% and the IC50 was 17.2 nM.

As for `CC(C)(C)CCN1CCC2(CC1)CC2CNc1ccc(-c2cc(F)ccc2Cl)cn1` (stereo not shown) [Compound 69, 5-(2-chloro-5-fluoro-phenyl)-N-[[6-(3,3-dimethylbutyl)-6-azaspiro[2.5]octan-2-yl]methyl]pyridin-2-amine], at Rat M4, the “Emin (rat M4)” value was found to be 4.18% and the IC50 is 1800 nM. Further, at Human M4, the “Emin (human M4)” value worked out at 4.09% and the IC50 stood at 749 nM.

For `CC(C)(C)CCN1CCC2(CC1)CC2CNc1ccc(-c2ccc(F)cc2Cl)nn1` (stereo not shown) [Compound 24, 6-(2-chloro-4-fluoro-phenyl)-N-[[6-(3,3-dimethylbutyl)-6-azaspiro[2.5]octan-2-yl]methyl]pyridazin-3-amine], at Rat M4, the “Emin (rat M4)” value came to 3.19% and the IC50 stood at 159 nM. In addition, on Human M4, the “Emin (human M4)” value was 2.81% and the IC50 turned out to be 42.8 nM.

As to `Fc1ccc(Cl)c(-c2ccc(NC[C@@H]3CC34CCN(CC3CCOCC3)CC4)nn2)c1` [Compound 107, (R)-6-(2-chloro-5-fluoro-phenyl)-N-[[6-(tetrahydropyran-4-ylmethyl)-6-azaspiro[2.5]octan-2-yl]methyl]pyridazin-3-amine], on Rat M4, the “Emin (rat M4)” value was found to be 6% and the IC50 amounted to 12.9 nM. For the same compound, on Human M4, the “Emin (human M4)” value is listed as 4% and the IC50 stood at 1.8 nM.

Regarding `c1cc(N2CCOCC2)nnc1NCC1CC12CCN(CC13CC4CC(CC(C4)C1)C3)CC2` (stereo not shown) [Compound 84, N-[[6-(1-adamantylmethyl)-6-azaspiro[2.5]octan-2-yl]methyl]-6-morpholino-pyridazin-3-amine], at Rat M4, the “Emin (rat M4)” value was 3% and the IC50 came out at 257 nM. At Human M4, the “Emin (human M4)” value is reported as 5% and the IC50 turned out to be 33.9 nM.

In the case of `Cn1nccc1-c1ccc(NCC2CC23CCN(CCC(C)(C)C)CC3)nn1` (stereo not shown) [Compound 38, N-[[6-(3,3-dimethylbutyl)-6-azaspiro[2.5]octan-2-yl]methyl]-6-(2-methylpyrazol-3-yl)pyridazin-3-amine], at Rat M4, the “Emin (rat M4)” value was determined as 4.05% and the IC50 worked out at 24 nM. Besides, at Human M4, the “Emin (human M4)” value is 3.30% and the IC50 stood at 3.71 nM.

`Cc1nn(C)cc1-c1ccc(NCC2CC23CCN(CC(c2ccccc2)c2ccccc2)CC3)nn1` (stereo not shown) [Compound 59, 6-(1,3-dimethylpyrazol-4-yl)-N-[[6-(2,2-diphenylethyl)-6-azaspiro[2.5]octan-2-yl]methyl]pyridazin-3-amine]: on Rat M4, the “Emin (rat M4)” value was 4.58% and the IC50 turned out to be 1880 nM. For the same compound, on Human M4, the “Emin (human M4)” value was determined as 3.31% and the IC50 amounted to 543 nM.

Turning to `Cc1nn(C)cc1-c1ccc(NCC2CC23CCN(CC2CCCCC2)CC3)nn1` (stereo not shown) [Compound 56, N-[[6-(cyclohexylmethyl)-6-azaspiro[2.5]octan-2-yl]methyl]-6-(1,3-dimethylpyrazol-4-yl)pyridazin-3-amine], on Rat M4, the “Emin (rat M4)” value came out at 4.14% and the IC50 amounted to 63.8 nM. Also, on Human M4, the “Emin (human M4)” value was determined as 3.42% and the IC50 is 5.06 nM.

On to `CC(C)(C)CCN1CCC2(CC1)CC2CNc1ncc(-c2ccccc2)s1` (stereo not shown) [Compound 72, N-[[6-(3,3-dimethylbutyl)-6-azaspiro[2.5]octan-2-yl]methyl]-5-phenyl-thiazol-2-amine], for which, on Rat M4, the “Emin (rat M4)” value is on record as 4.86% and the IC50 stood at 779 nM. Also, at Human M4, the “Emin (human M4)” value turned out to be 4.42% and the IC50 came out at 1260 nM.

Turning to `CC(C)(C)CCN1CCC2(CC1)CC2CNc1ccc(-c2cccc(F)c2Cl)nn1` (stereo not shown) [Compound 41, 6-(2-chloro-3-fluoro-phenyl)-N-[[6-(3,3-dimethylbutyl)-6-azaspiro[2.5]octan-2-yl]methyl]pyridazin-3-amine], at Rat M4, the “Emin (rat M4)” value came to 3.33% and the IC50 was 105 nM. Moreover, at Human M4, the “Emin (human M4)” value is given as 2.24% and the IC50 turned out to be 16 nM.

In the case of `Cc1cccnc1CN1CCC2(CC1)CC2CNc1ccc(-c2cn(C)nc2C)nn1` (stereo not shown) [Compound 62, 6-(1,3-dimethylpyrazol-4-yl)-N-[[6-[(3-methyl-2-pyridyl)methyl]-6-azaspiro[2.5]octan-2-yl]methyl]pyridazin-3-amine], on Rat M4, the “Emin (rat M4)” value is 19.9% and the IC50 was determined as 4460 nM. Moreover, at Human M4, the “Emin (human M4)” value amounted to 4.23% and the IC50 was determined as 271 nM.

`CC(C)(C)CCN1CCC2(CC1)CC2CNc1ccc(-c2cc(F)ccc2F)nn1` (stereo not shown) [Compound 30, 6-(2,5-difluorophenyl)-N-[[6-(3,3-dimethylbutyl)-6-azaspiro[2.5]octan-2-yl]methyl]pyridazin-3-amine]: at Rat M4, the “Emin (rat M4)” value is 3.26% and the IC50 was 107 nM. For the same compound, at Human M4, the “Emin (human M4)” value was determined as 2.43% and the IC50 was found to be 31.2 nM.

For the compound `CC(C)(C)CCN1CCC2(CC1)CC2CNc1ccc(-c2ccc3ccncc3c2)nn1` (stereo not shown) [Compound 44, N-[[6-(3,3-dimethylbutyl)-6-azaspiro[2.5]octan-2-yl]methyl]-6-(7-isoquinolyl)pyridazin-3-amine], on Rat M4, the “Emin (rat M4)” value worked out at 3.41% and the IC50 came out at 47.8 nM. Further, at Human M4, the “Emin (human M4)” value is 2.73% and the IC50 came to 16 nM.

For the compound `Fc1ccc(Cl)c(-c2ccc(NCC3CC34CCN(CC3CCCCC3)CC4)nn2)c1` (stereo not shown) [Compound 14, 6-(2-chloro-5-fluoro-phenyl)-N-[[6-(cyclohexylmethyl)-6-azaspiro[2.5]octan-2-yl]methyl]pyridazin-3-amine], on Rat M4, the “Emin (rat M4)” value amounted to 2.42% and the IC50 is 228 nM. For the same compound, at Human M4, the “Emin (human M4)” value was 1.95% and the IC50 stood at 17.7 nM.
